Like-named read-outs stand apart in the source and are kept apart here.
Molecular target: T1, Human M4 (Homo sapiens, UniProt P08173)
T1 construct: Human or rat M4 cDNA, along with the chimeric G protein Gqi5, were transfected into Chinese hamster ovary (CHO-K1) cells; expressed in transfected cells; host or cells: CHO-K1 (Chinese hamster ovary, ATCC), stably co-expressing Gqi5
T1 sequence (P08173 1-479): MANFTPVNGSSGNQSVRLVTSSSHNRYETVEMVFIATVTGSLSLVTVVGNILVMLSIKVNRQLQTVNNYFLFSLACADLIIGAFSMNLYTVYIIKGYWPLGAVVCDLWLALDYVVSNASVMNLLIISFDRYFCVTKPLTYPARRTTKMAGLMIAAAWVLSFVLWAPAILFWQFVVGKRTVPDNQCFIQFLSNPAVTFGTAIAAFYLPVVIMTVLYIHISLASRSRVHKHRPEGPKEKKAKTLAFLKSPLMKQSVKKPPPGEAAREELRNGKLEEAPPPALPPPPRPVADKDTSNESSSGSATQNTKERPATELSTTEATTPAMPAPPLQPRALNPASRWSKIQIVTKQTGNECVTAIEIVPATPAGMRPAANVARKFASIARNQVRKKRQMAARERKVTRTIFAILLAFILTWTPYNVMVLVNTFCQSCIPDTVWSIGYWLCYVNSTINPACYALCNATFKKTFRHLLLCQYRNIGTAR
Test: mAChR M4 cell-based functional assay (calcium flux, decrease of EC80 acetylcholine response)
Settings: for remaining activity at 30 µM: read-out: Human M4 Emin; for IC50: M4/Gqi5/CHO-K1 cells, decrease of response to EC80 acetylcholine
Procedure: Human or rat M4 cDNA, along with the chimeric G protein Gqi5, were transfected into Chinese hamster ovary (CHO-K1) cells purchased from the American Type Culture Collection using Lipofectamine2000. M4/Gqi5/CHO cells were grown in Ham's F-12 medium containing 10% heat-inactivated fetal bovine serum (FBS), 20 mM HEPES, 500 μg/mL G418 sulfate, and 200 μg/mL Hygromycin B.
For high throughput measurement of agonist-evoked increases in intracellular calcium, CHO-K1 cells stably expressing muscarinic receptors were plated in growth medium lacking G418 and hygromycin at 15,000 cells/20 μL/well in Greiner 384-well black-walled, tissue culture (TC)-treated, clear-bottom plates (VWR). Cells were incubated overnight at 37° C. and 5% CO2. The next day, cells were washed using an ELX 405 (BioTek) with assay buffer; the final volume was then aspirated to 20 μL. Next, 20 μL of a 2.3 μM stock of Fluo-4/acetoxymethyl ester (Invitrogen, Carlsbad, Calif.), prepared as a 2.3 mM stock in DMSO and mixed in a 1:1 ratio with 10% (w/v) Pluronic F-127 and diluted in assay buffer, was added to the wells and the cell plates were incubated for 50 min at 37° C. and 5% CO2. Dye was removed by washing with the ELX 405 and the final volume was aspirated to 20 μL. Compound master plates were formatted in a 10 point concentration-response curve (CRC) format (1:3 dilutions) in 100% DMSO with a starting concentration of 10 or 1 mM using a BRAVO liquid handler (Agilent). Test compound CRCs were then transferred to daughter plates (240 nL) using the Echo acoustic plate reformatter (Labcyte, Sunnyvale, Calif.) and then diluted into assay buffer (40 μL) to a 2×stock using a Thermo Fisher Combi (Thermo Fisher Scientific, Waltham, Mass.).
Calcium flux was measured using the Functional Drug Screening System (FDSS) 6000 or 7000 (Hamamatsu Corporation, Tokyo, Japan) as an increase in the fluorescent static ratio. Compounds were applied to cells (20 μL, 2×) using the automated system of the FDSS at 2 seconds into the protocol and the data were collected at 1 Hz. At 143 s, 10 μL of an EC20 concentration of the muscarinic receptor agonist acetylcholine was added (5×), followed by the addition of 12 μL of an EC80 concentration of acetylcholine at the 268 s time point (5×). Agonist activity was analyzed as a concentration-dependent increase in calcium mobilization upon compound addition. Positive allosteric modulator activity was analyzed as a concentration-dependent increase in the EC20 acetylcholine response. Antagonist activity was analyzed as a concentration-dependent decrease in the EC80 acetylcholine response; for the purposes of the tables herein, an IC50 (inhibitory concentration 50) was calculated as a concentration-dependent decrease of the response elicited by an EC80 concentration of acetylcholine. Concentration-response curves were generated using a four-parameter logistical equation in XLFit curve fitting software (IDBS, Bridgewater, N.J.) for Excel (Microsoft, Redmond, Wash.) or Prism (GraphPad Software, Inc., San Diego, Calif.) or the Dotmatics software platform (Dotmatics, Bishop's Stortford, UK).
Compounds were synthesized as described above. Activity (IC50 and Emin) was determined in the mAChR M4 cell-based functional assay as described above and the data are shown in Table 2.

Row | Structure (SMILES) | remaining activity at 30 µM (% ACh maximum at 30 μM) [%] | IC50 [nM] | Human M4 Emin (% ACh maximum at 30 μM) [%] | remaining activity at 30 µM [%]
1 | Cn1cc2cc(-c3cc(C(F)(F)F)c(N[C@H]4C[C@@H]5CN(CC6CCCOC6)C[C@@H]5C4)nn3)ccc2n1 (single isomer, unassigned) [Example 36] | 4 | 99.7 |  | 
2 | Cn1cc2cc(-c3cc(C(F)(F)F)c(N[C@H]4C[C@@H]5CN(CC6CCCOC6)C[C@@H]5C4)nn3)ccc2n1 (single isomer, unassigned) [Example 37] |  | 76.1 | 5 | 
3 | Cc1ccc(F)cc1-c1cc(C(F)(F)F)c(N[C@H]2C[C@@H]3CN(CC4CCCCO4)C[C@@H]3C2)nn1 (single isomer, unassigned) [Example 118] | 3 | 12.5 |  | 
4 | Cc1ccc(F)cc1-c1cc(C(F)(F)F)c(N[C@H]2C[C@@H]3CN(CC4CCCCO4)C[C@@H]3C2)nn1 (single isomer, unassigned) [Example 119] |  | 14 | 3 | 
5 | Cc1ccc(F)cc1-c1cc(C(F)(F)F)c(N[C@H]2C[C@@H]3CN(CC4CCCOC4)C[C@@H]3C2)nn1 (single isomer, unassigned) [Example 120] | 3 | 10.3 |  | 
6 | Cc1ccc(F)cc1-c1cc(C(F)(F)F)c(N[C@H]2C[C@@H]3CN(CC4CCCOC4)C[C@@H]3C2)nn1 (single isomer, unassigned) [Example 121] |  | 10.1 | 3 | 
7 | Cn1cc2cc(-c3cc(C#N)c(N[C@H]4C[C@@H]5CN(CC6CCCOC6)C[C@@H]5C4)nn3)ccc2n1 (single isomer, unassigned) [Example 158] | 14 | 15.7 |  | 
8 | Cn1cc2cc(-c3cc(C#N)c(N[C@H]4C[C@@H]5CN(CC6CCCOC6)C[C@@H]5C4)nn3)ccc2n1 (single isomer, unassigned) [Example 159] |  | 11.5 | 10 | 
9 | Cn1cc2cc(-c3nnc(N[C@H]4C[C@@H]5CN(CC6CCOCC6)C[C@@H]5C4)cc3C(F)(F)F)ccc2n1 [Example 1, (3aR,5s,6aS)—N-(6-(2-Methyl-2H-indazol-5-yl)-5-(trifluoromethyl)pyridazin-3-yl)-2-((tetrahydro-2H-pyran-4-yl)methyl)octahydrocyclopenta[c]pyrrol-5-amine] |  | 5.63 | 2 | 
10 | Cc1ccc(F)cc1-c1cc(C(F)(F)F)c(O[C@H]2C[C@@H]3CN(CC4CCOCC4)C[C@@H]3C2)nn1 [Example 5, (3aR,5s,6aS)-5-((6-(5-fluoro-2-methylphenyl)-4-(trifluoromethyl)pyridazin-3-yl)oxy)-2-((tetrahydro-2H-pyran-4-yl)methyl)octahydrocyclopenta[c]pyrrole] |  | 1240 | 7 | 
11 | C[C@H]1CCCN(c2cc(C(F)(F)F)c(N[C@H]3C[C@@H]4CN(CC5CCOCC5)C[C@@H]4C3)nn2)C1 [Example 6, (3aR,5s,6aS)—N-(6-((S)-3-methylpiperidin-1-yl)-4-(trifluoromethyl)pyridazin-3-yl)-2-((tetrahydro-2H-pyran-4-yl)methyl)octahydrocyclopenta[c]pyrrol-5-amine] |  | 1220 | 4 | 
12 | Cc1c(-c2nnc(N(C)[C@H]3C[C@@H]4CN(CC5CCOCC5)C[C@@H]4C3)cc2C(F)(F)F)ccc2nn(C)cc12 [Example 7, (3aR,5s,6aS)—N-(6-(2,4-dimethyl-2H-indazol-5-yl)-5-(trifluoromethyl)pyridazin-3-yl)-N-(methyl-d3)-2-((tetrahydro-2H-pyran-4-yl)methyl)octahydrocyclopenta [c]pyrrol-5-amine] |  | 3670 |  | 
13 | [2H]C([2H])([2H])N(c1cc(C(F)(F)F)c(-c2ccc3nn(C)cc3c2C)nn1)[C@H]1C[C@@H]2CN(CC3CCOCC3)C[C@@H]2C1 [Example 7, (3aR,5s,6aS)—N-(6-(2,4-dimethyl-2H-indazol-5-yl)-5-(trifluoromethyl)pyridazin-3-yl)-N-(methyl-d3)-2-((tetrahydro-2H-pyran-4-yl)methyl)octahydrocyclopenta [c]pyrrol-5-amine] |  |  | 15 | 
14 | Cc1cc(CN2C[C@H]3C[C@H](Nc4ncc(-c5cc(F)ccc5Cl)cn4)C[C@H]3C2)ccc1F [Example 9, (3aR,5s,6aS)-N-(5-(2-chloro-5-fluorophenyl)pyrimidin-2-yl)-2-(4-fluoro-3-methylbenzyl)octahydro-cyclopenta[c]pyrrol-5-amine] | 27 | > 10000 |  | 
15 | Fc1ccc(Cl)c(-c2nnc(N[C@H]3C[C@@H]4CN(CC5CCOCC5)C[C@@H]4C3)cc2C(F)(F)F)c1 [Example 10, (3aR,5s,6aS)-N-(6-(2-chloro-5-fluorophenyl)-5-(trifluoro-methyl)pyridazin-3-yl)-2-((tetrahydro-2H-pyran-4-yl)methyl)octahydro-cyclopenta[c]pyrrol-5-amine] | 3 | 2.06 |  | 
16 | Cn1cc2cc(-c3cnc(N[C@H]4C[C@@H]5CN(CC6CCOCC6)C[C@@H]5C4)nc3)ccc2n1 [Example 12, (3aR,5s,6aS)-N-(5-(2-methyl-2H-indazol-5-yl)pyrimidin-2-yl)-2-((tetrahydro-2H-pyran-4-yl)methyl)octahydro-cyclopenta[c]pyrrol-5-amine] |  | 2750 |  | 10
17 | Cn1cc2cc(-c3cnc(N[C@H]4C[C@@H]5CN(Cc6ccc7c(c6)OCO7)C[C@@H]5C4)nc3)ccc2n1 [Example 13, (3aR,5s,6aS)-2-(benzo[d][1,3]dioxol-5-ylmethyl)-N-(5-(2-methyl-2H-indazol-5-yl)pyrimidin-2-yl)octahydro-cyclopenta[c]pyrrol-5-amine] | 10 | 5290 |  | 
18 | Cn1cc2cc(-c3cnc(N[C@H]4C[C@@H]5CN(CCC(C)(C)C)C[C@@H]5C4)nc3)ccc2n1 [Example 14, (3aR,5s,6aS)-2-(3,3-dimethyl-butyl)-N-(5-(2-methyl-2H-indazol-5-yl)pyrimidin-2-yl)octahydro-cyclopenta[c]pyrrol-5-amine] | 4 | 394 |  | 
19 | CC(C)(C)CCN1C[C@H]2C[C@H](Nc3ncc(-c4cc(F)ccc4Cl)cn3)C[C@H]2C1 [Example 15, (3aR,5s,6aS)-N-(5-(2-chloro-5-fluorophenyl)pyrimidin-2-yl)-2-(3,3-dimethylbutyl)octahydro-cyclopenta[c]pyrrol-5-amine] | 3 | 3330 |  | 
20 | [2H]C([2H])(C1CCOCC1)N1C[C@H]2C[C@H](Nc3nnc(-c4cc(F)ccc4Cl)cc3C(F)(F)F)C[C@H]2C1 [Example 16, (3aR,5s,6aS)-N-(6-(2-chloro-5-fluorophenyl)-4-(trifluoro-methyl)pyridazin-3-yl)-2-((tetrahydro-2H-pyran-4-yl)methyl-d2)octahydro-cyclopenta[c]pyrrol-5-amine] | 3 | 9.2 |  | 

— US20230183219A1, “CONDENSED SUBSTITUTED HYDROPYRROLES AS ANTAGONISTS OF THE MUSCARINIC ACETYLCHOLINE RECEPTOR M4” (Vanderbilt University, priority 2020, published 2023)
